Measurements as given in ChEMBL document CHEMBL1201862, “PubChem BioAssay data set” (2004).
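Five compound concentrations were applied to cells in 96-well plates for 48 hours; endpoints were derived by simple linear interpolation of the resulting dose-response curve. GI50 = concentration required for 50% inhibition of growth.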 Active and inactive are the calls of the source. Rule as the data show it: active = GI50 up to about 1.1 µM and inactive = higher.

Tests used:
Assay in all cases: inhibition of tumour cell growth, NCI panel, 48 h
786-0 = system: 786-0
BT-549 = system: BT-549
HT-29 = system: HT-29
K562 = system: K562
KM12 = system: KM12
LOX IMVI = system: LOX IMVI
MOLT-4 = system: MOLT-4
NCI-H460 = system: NCI-H460
NCI/ADR-RES = system: NCI/ADR-RES
OVCAR-5 = system: OVCAR-5
PC-3 = system: PC-3
RPMI-8226 = system: RPMI-8226
SK-MEL-2 = system: SK-MEL-2
SK-MEL-5 = system: SK-MEL-5
SN12C = system: SN12C
SNB-75 = system: SNB-75
SR = system: SR
U-251 = system: U-251
UACC-257 = system: UACC-257
UACC-62 = system: UACC-62

Measured: GI50

Cc1ccc(S(=O)(=O)NC(=O)NC(Cc2ccccc2)C(=O)O)cc1 (stereo not given)
inactive: 786-0 > 100 µM | BT-549 > 100 µM | HT-29 > 100 µM | K562 > 100 µM | KM12 > 100 µM | LOX IMVI > 100 µM | MOLT-4 > 100 µM | NCI-H460 > 100 µM | NCI/ADR-RES > 100 µM | OVCAR-5 > 100 µM | PC-3 > 100 µM | RPMI-8226 > 100 µM | SK-MEL-2 > 100 µM | SK-MEL-5 > 100 µM | SN12C > 100 µM | SNB-75 > 100 µM | SR > 100 µM | U-251 > 100 µM | UACC-257 > 100 µM | UACC-62 > 100 µM

Sc1nn2c(COc3cc(Cl)c(OCc4nnc5sc(S)nn45)cc3Cl)nnc2s1
inactive: 786-0 39.5 µM | BT-549 32.7 µM | HT-29 43.3 µM | K562 33.7 µM | KM12 > 100 µM | LOX IMVI 32.8 µM | MOLT-4 31.3 µM | NCI-H460 > 100 µM | NCI/ADR-RES > 100 µM | OVCAR-5 > 100 µM | PC-3 > 100 µM | RPMI-8226 32.4 µM | SK-MEL-2 > 100 µM | SK-MEL-5 41.2 µM | SN12C 41.2 µM | SNB-75 82 µM | SR 30.1 µM | U-251 > 100 µM | UACC-257 > 100 µM | UACC-62 28.6 µM

COc1cc2c3c(c1O)C1(C=CC(=O)C=C1)CC3N(C)CC2 (stereo not given) [GLAZIOVINE]
inactive: 786-0 3.17 µM | BT-549 5.78 µM | HT-29 8.95 µM | K562 5.2 µM | KM12 4.48 µM | LOX IMVI 2.77 µM | MOLT-4 4.26 µM | NCI-H460 4.11 µM | NCI/ADR-RES 2.72 µM | OVCAR-5 19.3 µM | PC-3 14.3 µM | RPMI-8226 14.8 µM | SK-MEL-2 10.7 µM | SK-MEL-5 14 µM | SN12C 9.18 µM | SNB-75 4.57 µM | SR 3.3 µM | U-251 4.26 µM | UACC-257 13.4 µM | UACC-62 11.1 µM
